The values that follow come from ChEMBL document CHEMBL1126190, “3-[4-[1-(6-Fluorobenzo[b]thiophen-3-yl)-4-piperazinyl]butyl]- 2,5,5-trimethyl-4-thiazolidinone: a new atypical antipsychotic agent for the treatment of schizophrenia” (J Med Chem, 1992).

Assay [1] has as its target T1, 5-hydroxytryptamine receptor 1A (Rattus norvegicus, UniProt P19327).
T1 sequence (P19327 whole entry): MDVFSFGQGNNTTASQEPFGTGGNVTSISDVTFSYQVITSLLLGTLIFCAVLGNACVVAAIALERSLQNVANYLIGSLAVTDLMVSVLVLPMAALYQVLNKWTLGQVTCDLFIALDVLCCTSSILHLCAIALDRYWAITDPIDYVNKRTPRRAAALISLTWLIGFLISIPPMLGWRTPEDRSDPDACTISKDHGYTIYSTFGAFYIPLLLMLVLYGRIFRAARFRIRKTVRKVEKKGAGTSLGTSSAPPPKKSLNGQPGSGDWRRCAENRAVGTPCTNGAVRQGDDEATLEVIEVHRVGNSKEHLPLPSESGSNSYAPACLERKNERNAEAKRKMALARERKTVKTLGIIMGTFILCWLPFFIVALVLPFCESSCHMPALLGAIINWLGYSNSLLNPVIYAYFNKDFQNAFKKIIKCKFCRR
Briefly: Compound was evaluated for in vitro binding affinity towards serotonin 5-hydroxytryptamine 1A receptor receptor in rat hippocampus using [3H]8-OH-DPAT as radioligand. In kind it is tissue-based.

Assay [2] has as its target Serotonin 2 (5-HT2) receptor (Rattus norvegicus, UniProt P30994+P08909+P14842). Description: Compound was evaluated for in vitro binding affinity towards serotonin 5-hydroxytryptamine 2 receptor in rat cortex using [3H]- spiperone as radioligand.
Assay [3] concerns Mus musculus. Description: Compound was evaluated for inhibition of apomorphine-induced climbing in mouse after intraperitoneal administration. In kind it is functional. Conditions: ip.
Assay [4] concerns the target D(1A) dopamine receptor (Rattus norvegicus, UniProt P18901). Briefly: Compound was evaluated for in vitro binding affinity towards Dopamine receptor D1 in striatum using [3H]- SCH 23390 as radioligand. In kind it is tissue-based.
Assay [5] concerns Rattus norvegicus. Description: Compound was evaluated for inhibition of apomorphine-induced stereotypy behavior in rats after intraperitoneal administration. As to conditions: ip. In kind it is functional.
Assay [6] concerns Rattus norvegicus. Description: Compound was evaluated for pole-climb avoidance in rat after peroral administration. In kind it is functional. As to conditions: po.
In assay [7] the test system is Rattus norvegicus. Briefly: Compound was evaluated for intracranial self-stimulation in rat after intraperitoneal administration. Conditions: ip. In kind it is functional.
Assay [8] has as its system Mus musculus. Description: Compound was evaluated for inhibition of apomorphine-induced climbing in mouse after peroral administration. In kind it is functional. As to conditions: po.
Assay [9] deals with Rattus norvegicus. Description: Compound was evaluated for pole-climb avoidance (escape failures) in rat after peroral administration. In kind it is functional. As to conditions: po.

SMILES strings stand for the structures. pKi: −log10 of the molar value.

Chain of D(1A) dopamine receptor (P18901 whole entry): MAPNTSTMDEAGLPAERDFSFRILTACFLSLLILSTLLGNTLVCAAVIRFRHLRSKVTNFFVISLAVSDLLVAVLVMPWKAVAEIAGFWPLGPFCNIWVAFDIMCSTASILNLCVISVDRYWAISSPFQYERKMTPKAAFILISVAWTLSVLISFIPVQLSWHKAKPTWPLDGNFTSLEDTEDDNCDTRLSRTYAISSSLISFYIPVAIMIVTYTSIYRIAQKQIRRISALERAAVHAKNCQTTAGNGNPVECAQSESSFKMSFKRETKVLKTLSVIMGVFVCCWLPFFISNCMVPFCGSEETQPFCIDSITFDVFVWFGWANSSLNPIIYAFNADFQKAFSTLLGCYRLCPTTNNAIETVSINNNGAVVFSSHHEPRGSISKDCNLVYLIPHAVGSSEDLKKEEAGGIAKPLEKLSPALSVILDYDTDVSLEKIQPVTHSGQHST

On to `CC1SC(C)(C)C(=O)N1CCCCN1CCN(c2csc3cc(F)ccc23)CC1` (stereo unspecified), for which the results for the negative-log Ki (pKi) in [1] and in assay [4] were 7.40 and 5.56, respectively. The inhibition constant (Ki) (in general, the dissociation constant of the complex between target and ligand, obtained from inhibition or displacement) in assay [2] turned out to be 0.02 µM. The ED50 (in general, the midpoint of the dose-response relation) in [3] is 2.5 mg/kg; in assay [5], 61.4 mg/kg; in [6] it was 5.46 mg/kg; in [7], 4.7 mg/kg; in assay [8], 15.4 mg/kg; in assay [9], greater than 20 mg/kg.
In the case of `CN1CCN(C2=Nc3cc(Cl)ccc3Nc3ccccc32)CC1` [CLOZAPINE], the figures for the ED50 in [5], in [6] and in assay [9] were greater than 40 mg/kg, 12.7 mg/kg and 33.1 mg/kg, respectively.
On to `O=C(CCCN1CCC(O)(c2ccc(Cl)cc2)CC1)c1ccc(F)cc1` [HALOPERIDOL], for which the ED50 in assay [5] came to 0.576 mg/kg; in assay [6], 1.1 mg/kg; in assay [7] it was 0.077 mg/kg; in [9], 14.1 mg/kg.
